Where no end group is shown, it is not given here.

The text below walks through data of PMC2963311 (Nature neuroscience, 2008).

This test relates to EGL-6. Kind of test: GIRK current activation in EGL-6-expressing oocytes. Type of test: cell-based, C. elegans. Particulars: single synthetic peptide; X. laevis oocytes coexpressing EGL-6 and GIRKs; whole-cell currents, two-electrode voltage clamp, −80 mV, high-K+ medium (96 mM KCl); Fig. 4d.
In the case of KSAFVRF-NH2, the “agonist activity when applied individually” value was “could function as agonists when applied individually”. As for KSQYIRF-NH2, the entry is “could function as agonists when applied individually”; as for QPKARSGYIRF-NH2, “could function as agonists when applied individually”.
